Columns and labels:
[1] = system: panel of solid tumor and leukemic cell lines; assay: Primary growth inhibition screen, MCLs and T-ALLs compared to other tumor types; format: cell-based, human; conditions: from GI50 values of primary screen
Method: (§1) Cell lines were cultured in RPMI-1640 medium (Thermo Scientific) supplemented with 10% heat inactivated FBS and penicillin-streptomycin at 37°C under humidified conditions and 5% CO2. All cell lines tested negative for mycoplasma. […] Compounds were added 24 hrs post-plating at the indicated concentrations. Cell counts were determined from duplicate wells 96 hrs post-treatment using the Cell Titer Blue assay in conjunction with the GloMax plate reader (Promega).

[2] = system: CEM, HBL-2, RS4-11 and Granta-519 cells; assay: Apoptosis, Annexin V/DAPI staining; format: cell-based, human; conditions: 0.5-2.0 μM, 24 hours post-treatment
Method: (§2) Figure 5 Modulation of cell cycle expression and induction of apoptosis in ON 108110-treated MCL and T-ALL cell lines (A) CEM and Granta-519 cells were treated with either DMSO or increasing concentrations of ON108110 (0.5-2.0μM) for 24 hours. Cell cycle analysis was performed using propidium iodide staining. (B) CEM, HBL-2, RS4-11 and Granta-519 cells were treated with either DMSO (vehicle) or increasing concentrations of ON108110 (0.5-2.0 μM) for 24 hours and stained with Annexin V/DAPI (C) Graphical representation of apoptosis induced as shown in B. (D) Granta-519 cells were treated with increasing concentrations of ON108110 for 24 hours. Caspase activation and viability were measured using the Caspase Glo 3/7 and Cell Titer Blue assay kits, respectively. […]
To determine cell cycle distribution, 70% ethanol fixed cells were washed with phosphate buffered saline (PBS), resuspended in PBS and incubated with RNase and propidium iodide at 37°C for 20 min. DNA content was analyzed on a FACS Calibur (BD Immunocytometry Systems) and the data analyzed using Flowjo software (Treestar). Annexin V staining was measured using the FITC Annexin V Apoptosis Detection Kit I (BD Biosciences) according to the instructions of the manufacturer except that DAPI was substituted at a concentration of […] to measure DNA content.

Granta-519 cells = assay: Caspase Glo 3/7 caspase activation assay; format: cell-based, human; conditions: increasing concentrations, 24 hours
Method: as §2, with “respectively. TEXT PRINTED IN THE PICTURE: (B) DMSO: 1.31; 2.34; 94.5; 1.65 | (B) ON108110: 2.21 (0.5μM); 4.32 (0.5μM); 91.1 (0.5μM); 2.37 (0.5μM); 1.64 (1.0μM); 15 (1.0μM); 80.8 (1.0μM); 2.62 (1.0μM); 4.83 (2.0μM); 60.7 (2.0μM); 28.9 (2.0μM); 5.58 (2.0μM) DOUBTS OF THE COPYIST ABOUT THIS PICTURE: Panel B: the quadrant numbers in the Annexin V/DAPI plots have no printed measure or unit.” for “respectively.”
Caspase-3/7 activation was measured using the Caspase-Glo® 3/7 kit as recommended by the manufacturer (Promega).

HBL2 = assay: Growth inhibition (GI50), Cell Titer Blue; format: cell-based; conditions: Homo sapiens; HBL2, Mantle Cell Lymphoma; 96 hrs post-treatment
Method: as §1

K562 = assay: Growth inhibition (GI50), Cell Titer Blue; format: cell-based; conditions: Homo sapiens; K562, Chronic Myeloid Leukemia; 96 hrs post-treatment
Method: as §1

MOLT-4 = assay: Growth inhibition (GI50), Cell Titer Blue; format: cell-based; conditions: Homo sapiens; MOLT-4, Acute Lymphoblastic Leukemia; 96 hrs post-treatment
Method: as §1

GRANTA-519 = assay: Growth inhibition (GI50), Cell Titer Blue; format: cell-based; conditions: Homo sapiens; GRANTA-519, Mantle Cell Lymphoma; 96 hrs post-treatment
Method: as §1

HEL = assay: Growth inhibition (GI50), Cell Titer Blue; format: cell-based; conditions: Homo sapiens, Erythroleukemia, 96 hrs post-treatment
Method: as §1

MiaPaca-2 = assay: Growth inhibition (GI50), Cell Titer Blue; format: cell-based; conditions: Homo sapiens, MIA PaCa-2; MiaPaca-2, Pancreatic Cancer; 96 hrs post-treatment
Method: as §1

BT-20 = assay: Growth inhibition (GI50), Cell Titer Blue; format: cell-based; conditions: Homo sapiens; BT-20, Breast Cancer; 96 hrs post-treatment
Method: as §1

JVM2 = assay: Growth inhibition (GI50), Cell Titer Blue; format: cell-based; conditions: Homo sapiens, JVM-2; JVM2, Mantle Cell Lymphoma; 96 hrs post-treatment
Method: as §1

22Rv1 = assay: Growth inhibition (GI50), Cell Titer Blue; format: cell-based; conditions: Homo sapiens; 22Rv1, Prostate Cancer; 96 hrs post-treatment
Method: as §1

RS-4-11 = assay: Growth inhibition (GI50), Cell Titer Blue; format: cell-based; conditions: Homo sapiens, RS4-11; RS-4-11, Acute Lymphoblastic Leukemia; 96 hrs post-treatment
Method: as §1

LnCap = assay: Growth inhibition (GI50), Cell Titer Blue; format: cell-based; conditions: Homo sapiens, Prostate Cancer, 96 hrs post-treatment
Method: as §1

MCF-7 = assay: Growth inhibition (GI50), Cell Titer Blue; format: cell-based; conditions: Homo sapiens, MCF7; MCF-7, Breast Cancer; 96 hrs post-treatment
Method: as §1

AsPc1 = assay: Growth inhibition (GI50), Cell Titer Blue; format: cell-based; conditions: Homo sapiens; AsPc1, Pancreatic Cancer; 96 hrs post-treatment
Method: as §1

CEM = assay: Growth inhibition (GI50), Cell Titer Blue; format: cell-based; conditions: Homo sapiens, CCRF-CEM, Acute Lymphoblastic Leukemia, 96 hrs post-treatment
Method: as §1

Z138C = assay: Growth inhibition (GI50), Cell Titer Blue; format: cell-based; conditions: Homo sapiens, Mantle Cell Lymphoma, 96 hrs post-treatment
Method: as §1

CC(=O)Oc1ccc(/C=C2\Sc3ccc(F)cc3NC2=O)cc1[N+](=O)[O-] [ON108110]
fold higher cytotoxicity against MCLs and T-ALLs compared to other tumor types [1]: 10-20 fold | frequency of apoptotic cells (Annexin V) [2]: concentration-dependent increase in the frequency of apoptotic cells | Caspase activity and PARP cleavage (Granta-519 cells): increased as a function of cell death | GI50 (HBL2): 250 nM | GI50 (K562): 2200 nM | GI50 (MOLT-4): 500 nM | GI50 (GRANTA-519): 150 nM | GI50 (HEL): 900 nM | GI50 (MiaPaca-2): 2600 nM | GI50 (BT-20): 2500 nM | GI50 (JVM2): 300 nM | GI50 (22Rv1): > 5 µM | GI50 (RS-4-11): 240 nM | GI50 (LnCap): > 5 µM | GI50 (MCF-7): 800 nM | GI50 (AsPc1): 2800 nM | GI50 (CEM): 180 nM | GI50 (Z138C): 600 nM

Source: article PMC6340882, “Targeting protein kinase CK2 and CDK4/6 pathways with a multi-kinase inhibitor ON108110 suppresses pro-survival signaling and growth in mantle cell lymphoma and T-acute lymphoblastic leukemia” (Oncotarget, 2018)
